Holding throughout (format): cell-based
In one assay the test system is A375. Put plainly: Cell viability assay (CellTiterGlo), A375. As to conditions: Homo sapiens, A-375; A375, origin Skin; 72 h. As for the experimental part: (§1) The test compounds and bortezomib (positive control) were solved in DMSO as 5 mM solution, which was aliquoted, frozen at −20° C. and thawed just prior addition by nanodrop dispensing. Compound treatment of cells started one day after seeding with a final DMSO concentration of 0.1% and was generally performed by nanodrop-dispensing using a Tecan Dispenser. 0.1% DMSO (solvent) and Staurosporine (1.0E-05 M) served as high control (100% viability) and low control (0% viability), respectively.
(§2) Cells were cultured in different media. For the assays, cells were seeded in white cell culture-treated flat and clear bottom multiwell plates and incubated at 37° C. before the compound was added. After incubation for 72 h at 37° C. at 5% or 10% CO2 dependent on the medium, cell plates were equilibrated to room temperature for one hour, CellTiterGlo reagent (Promega) was added and luminescence was measured ap-proximately an hour later using a luminometer.
(§3) Raw data were converted into percent cell viability relative to the high and low control, which were set to 100% and 0%, respectively. IC50 calculation was performed using GraphPad Prism software with a variable slope sigmoidal response fitting model using 0% viability as bottom constraint and 100% viability as top constraint.

Another assay relates to DU-145. Put plainly: Cell viability assay (CellTiterGlo), DU-145. As to conditions: Homo sapiens; DU-145, origin Prostate; 72 h. As for the experimental part:
as §1, §2, §3

A further assay has as its system H460. Put plainly: Cell viability assay (CellTiterGlo), H460. The conditions noted are these: Homo sapiens, NCI-H460; H460, origin NSCLC; 72 h. As for the experimental part:
as §1, §2, §3
A general note: ATP-based viability assays read luminescence as a measure of living cells.

The next assay deals with MV4-11. Briefly: Cell viability assay (CellTiterGlo), MV4-11. The conditions noted are these: Homo sapiens; MV4-11, origin AML; 72 h. How it is done:
as §1, §2, §3

In a further assay the test system is NCI-H2286. Put plainly: Cell viability assay (CellTiterGlo), NCI-H2286. The conditions noted are these: Homo sapiens; NCI-H2286, origin NSCLC; 72 h. As for the experimental part: as §1, §2, §3

Experimental findings from patent US20220281910A1, “DINUCLEOTIDE COMPOUNDS FOR TREATING CANCERS AND MEDICAL USES THEREOF” (PINOTBIO, INC., priority 2019, published 2022) are described below.

By IC50 is commonly meant the midpoint of a concentration-inhibition curve. High values mean lower potency, low ones higher potency. With `CC(C)C[C@H](NC(=O)[C@H](Cc1ccccc1)NC(=O)c1cnccn1)B(O)O` [Bortezomib, bortezomib], the concentration for half-maximal inhibition (IC50) came to 8.5 nM in the assay on A375; 11 nM in the assay on DU-145; 16 nM in the assay on H460; 3.8 nM in the assay with MV4-11; 6.6 nM in the assay on NCI-H2286.
